Results reported in PubChem BioAssay (NCI).
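Cultured in 96-well plates, cells were exposed to test compound for 48 hours across five concentrations. Abbreviation: GI50, concentration required for 50% inhibition of growth. The concentration for full growth arrest is given as TGI.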

How the values were obtained:
Assay in all cases: NCI-60 cell line screen, 48 h
OVCAR-4 ovarian = test system: OVCAR-4 ovarian
MALME-3M melanoma = test system: MALME-3M melanoma
OVCAR-8 ovarian = test system: OVCAR-8 ovarian
OVCAR-3 ovarian = test system: OVCAR-3 ovarian
SNB-78 CNS = test system: SNB-78 CNS
EKVX NSCLC = test system: EKVX NSCLC
U251 CNS = test system: U251 CNS
SK-MEL-28 melanoma = test system: SK-MEL-28 melanoma
A498 renal = test system: A498 renal
UACC-62 melanoma = test system: UACC-62 melanoma
UACC-257 melanoma = test system: UACC-257 melanoma
NCI-H226 lung = test system: NCI-H226 lung
HT29 colon = test system: HT29 colon
SR leukemia = test system: SR leukemia
TK-10 renal = test system: TK-10 renal
K-562 leukemia = test system: K-562 leukemia
HCC-2998 colon = test system: HCC-2998 colon
786-0 renal = test system: 786-0 renal
ACHN renal = test system: ACHN renal
SF-295 CNS = test system: SF-295 CNS
SN12C renal = test system: SN12C renal
M14 melanoma = test system: M14 melanoma
HOP-62 NSCLC = test system: HOP-62 NSCLC
DMS 273 small cell lung = test system: DMS 273 small cell lung
LXFL 529 NSCLC = test system: LXFL 529 NSCLC
XF 498 CNS = test system: XF 498 CNS
KM20L2 colon = test system: KM20L2 colon
SW-620 colon = test system: SW-620 colon
SK-OV-3 ovarian = test system: SK-OV-3 ovarian
A549 NSCLC = test system: A549 NSCLC
HOP-92 NSCLC = test system: HOP-92 NSCLC
NCI-H522 lung = test system: NCI-H522 lung
CAKI-1 renal = test system: CAKI-1 renal
OVCAR-5 ovarian = test system: OVCAR-5 ovarian
MOLT-4 leukemia = test system: MOLT-4 leukemia
DLD-1 colon = test system: DLD-1 colon
SK-MEL-2 melanoma = test system: SK-MEL-2 melanoma
CCRF-CEM leukemia = test system: CCRF-CEM leukemia
M19-MEL melanoma = test system: M19-MEL melanoma
HL-60(TB) leukemia = test system: HL-60(TB) leukemia
UO-31 renal = test system: UO-31 renal
LOX IMVI melanoma = test system: LOX IMVI melanoma
DMS 114 small cell lung = test system: DMS 114 small cell lung
RPMI-8226 leukemia = test system: RPMI-8226 leukemia
RXF 393 renal = test system: RXF 393 renal
SNB-19 CNS = test system: SNB-19 CNS
RXF-631 renal = test system: RXF-631 renal
IGROV1 ovarian = test system: IGROV1 ovarian
SF-268 CNS = test system: SF-268 CNS
KM12 colon = test system: KM12 colon
COLO 205 colon = test system: COLO 205 colon
NCI-H460 lung = test system: NCI-H460 lung
SNB-75 CNS = test system: SNB-75 CNS
SF-539 CNS = test system: SF-539 CNS
HCT-15 colon = test system: HCT-15 colon
NCI-H23 lung = test system: NCI-H23 lung
SK-MEL-5 melanoma = test system: SK-MEL-5 melanoma
HCT-116 colon = test system: HCT-116 colon
HOP-18 NSCLC = test system: HOP-18 NSCLC

`CCC[CH2][Sn]1([CH2]CCC)[O]CC(CN2CCCCC2)[O]1` (centres undefined) was tested, and the GI50 (OVCAR-4 ovarian) was 226 nM, the TGI (OVCAR-4 ovarian) was 1430 nM and the GI50 (MALME-3M melanoma) was 62.8 nM. It also gave a TGI (MALME-3M melanoma) of 616 nM, a GI50 (OVCAR-8 ovarian) of 283 nM and a TGI (OVCAR-8 ovarian) of 873 nM. The GI50 (OVCAR-3 ovarian) was 271 nM, the TGI (OVCAR-3 ovarian) was 821 nM and the GI50 (SNB-78 CNS) was 266 nM. It also gave a TGI (SNB-78 CNS) of 761 nM, a GI50 (EKVX NSCLC) of 284 nM and a TGI (EKVX NSCLC) of 1920 nM. The GI50 (U251 CNS) was 285 nM, the TGI (U251 CNS) was 1110 nM and the GI50 (SK-MEL-28 melanoma) was 685 nM. For the same compound, the TGI (SK-MEL-28 melanoma) was 1930 nM, the GI50 (A498 renal) was 276 nM and the TGI (A498 renal) was 785 nM. For the same compound, the GI50 (UACC-62 melanoma) was 301 nM, the TGI (UACC-62 melanoma) was 1300 nM and the GI50 (UACC-257 melanoma) was 309 nM. The TGI (UACC-257 melanoma) was 1050 nM, the GI50 (NCI-H226 lung) was 1630 nM and the TGI (NCI-H226 lung) was 3120 nM. It also gave a GI50 (HT29 colon) of 569 nM, a TGI (HT29 colon) of 1880 nM and a GI50 (SR leukemia) of 199 nM. It also gave a TGI (SR leukemia) of 619 nM, a GI50 (TK-10 renal) of 242 nM and a TGI (TK-10 renal) of 897 nM. The GI50 (K-562 leukemia) was 109 nM, the TGI (K-562 leukemia) was 744 nM and the GI50 (HCC-2998 colon) was 486 nM. The TGI (HCC-2998 colon) was 1870 nM, the GI50 (786-0 renal) was 291 nM and the TGI (786-0 renal) was 1010 nM. For the same compound, the GI50 (ACHN renal) was 269 nM, the TGI (ACHN renal) was 808 nM and the GI50 (SF-295 CNS) was 309 nM. It also gave a TGI (SF-295 CNS) of 1320 nM, a GI50 (SN12C renal) of 356 nM and a TGI (SN12C renal) of 1430 nM. The GI50 (M14 melanoma) was 336 nM, the TGI (M14 melanoma) was 1330 nM and the GI50 (HOP-62 NSCLC) was 1610 nM. The TGI (HOP-62 NSCLC) was 3050 nM, the GI50 (DMS 273 small cell lung) was 271 nM and the TGI (DMS 273 small cell lung) was 1250 nM. It also gave a GI50 (LXFL 529 NSCLC) of 76.2 nM, a TGI (LXFL 529 NSCLC) of 263 nM and a GI50 (XF 498 CNS) of 121 nM. For the same compound, the TGI (XF 498 CNS) was 264 nM, the GI50 (KM20L2 colon) was 852 nM and the TGI (KM20L2 colon) was 2210 nM. It also gave a GI50 (SW-620 colon) of 137 nM, a TGI (SW-620 colon) of 388 nM and a GI50 (SK-OV-3 ovarian) of 1300 nM. The TGI (SK-OV-3 ovarian) was 2810 nM, the GI50 (A549 NSCLC) was 1990 nM and the TGI (A549 NSCLC) was 3810 nM. For the same compound, the GI50 (HOP-92 NSCLC) was 193 nM, the TGI (HOP-92 NSCLC) was 885 nM and the GI50 (NCI-H522 lung) was 48.7 nM. For the same compound, the TGI (NCI-H522 lung) was 176 nM, the GI50 (CAKI-1 renal) was 51.2 nM and the TGI (CAKI-1 renal) was 333 nM. The GI50 (OVCAR-5 ovarian) was 1530 nM, the TGI (OVCAR-5 ovarian) was 2860 nM and the GI50 (MOLT-4 leukemia) was 158 nM. The TGI (MOLT-4 leukemia) was 646 nM, the GI50 (DLD-1 colon) was 394 nM and the TGI (DLD-1 colon) was 1850 nM. The GI50 (SK-MEL-2 melanoma) was 185 nM, the TGI (SK-MEL-2 melanoma) was 422 nM and the GI50 (CCRF-CEM leukemia) was 117 nM. For the same compound, the TGI (CCRF-CEM leukemia) was 600 nM, the GI50 (M19-MEL melanoma) was 477 nM and the TGI (M19-MEL melanoma) was 1730 nM. It also gave a GI50 (HL-60(TB) leukemia) of 68.3 nM, a TGI (HL-60(TB) leukemia) of 337 nM and a GI50 (UO-31 renal) of 954 nM. The TGI (UO-31 renal) was 2140 nM, the GI50 (LOX IMVI melanoma) was 179 nM and the TGI (LOX IMVI melanoma) was 485 nM. The GI50 (DMS 114 small cell lung) was 156 nM, the TGI (DMS 114 small cell lung) was 654 nM and the GI50 (RPMI-8226 leukemia) was 136 nM. For the same compound, the TGI (RPMI-8226 leukemia) was 484 nM, the GI50 (RXF 393 renal) was 299 nM and the TGI (RXF 393 renal) was 542 nM. It also gave a GI50 (SNB-19 CNS) of 330 nM, a TGI (SNB-19 CNS) of 948 nM and a GI50 (RXF-631 renal) of 124 nM. The TGI (RXF-631 renal) was 248 nM, the GI50 (IGROV1 ovarian) was 1120 nM and the TGI (IGROV1 ovarian) was 2410 nM. For the same compound, the GI50 (SF-268 CNS) was 295 nM, the TGI (SF-268 CNS) was 1340 nM and the GI50 (KM12 colon) was 634 nM. The TGI (KM12 colon) was 2100 nM, the GI50 (COLO 205 colon) was 273 nM and the TGI (COLO 205 colon) was 883 nM. It also gave a GI50 (NCI-H460 lung) of 1100 nM, a TGI (NCI-H460 lung) of 2290 nM and a GI50 (SNB-75 CNS) of 197 nM. It also gave a TGI (SNB-75 CNS) of 731 nM, a GI50 (SF-539 CNS) of 391 nM and a TGI (SF-539 CNS) of 1500 nM. It also gave a GI50 (HCT-15 colon) of 460 nM, a TGI (HCT-15 colon) of 1670 nM and a GI50 (NCI-H23 lung) of 137 nM. For the same compound, the TGI (NCI-H23 lung) was 343 nM, the GI50 (SK-MEL-5 melanoma) was 582 nM and the TGI (SK-MEL-5 melanoma) was 1910 nM. For the same compound, the GI50 (HCT-116 colon) was 892 nM and the TGI (HCT-116 colon) was 2130 nM.
For `O=C(CC1(O)C(=O)Nc2c(Cl)cc(Cl)cc21)c1ccc(Br)cc1` (centres undefined), the TGI (OVCAR-4 ovarian) was 25600 nM, the TGI (MALME-3M melanoma) was over 56100 nM and the TGI (OVCAR-8 ovarian) was over 52200 nM. For the same compound, the TGI (OVCAR-3 ovarian) was 29800 nM, the TGI (SNB-78 CNS) was 47000 nM and the TGI (EKVX NSCLC) was 29100 nM. It also gave a TGI (U251 CNS) of 26900 nM, a TGI (SK-MEL-28 melanoma) of 35100 nM and a TGI (A498 renal) of over 66000 nM. It also gave a TGI (HOP-18 NSCLC) of 30400 nM, a TGI (UACC-62 melanoma) of 23200 nM and a TGI (UACC-257 melanoma) of over 51300 nM. For the same compound, the TGI (NCI-H226 lung) was 29500 nM, the TGI (HT29 colon) was over 57900 nM and the TGI (SR leukemia) was 62100 nM. The TGI (TK-10 renal) was 32100 nM, the TGI (K-562 leukemia) was over 72800 nM and the TGI (HCC-2998 colon) was over 56100 nM. It also gave a TGI (786-0 renal) of 26400 nM, a TGI (ACHN renal) of 28800 nM and a TGI (SF-295 CNS) of over 55400 nM. The TGI (SN12C renal) was over 50400 nM, the TGI (M14 melanoma) was 31800 nM and the TGI (HOP-62 NSCLC) was 35700 nM. It also gave a TGI (DMS 273 small cell lung) of 28800 nM, a TGI (LXFL 529 NSCLC) of over 52400 nM and a TGI (KM20L2 colon) of 32900 nM. The TGI (SW-620 colon) was over 53000 nM, the TGI (SK-OV-3 ovarian) was 64000 nM and the TGI (A549 NSCLC) was 44200 nM. The TGI (HOP-92 NSCLC) was 29700 nM, the TGI (NCI-H522 lung) was 32400 nM and the TGI (CAKI-1 renal) was 33000 nM. For the same compound, the TGI (OVCAR-5 ovarian) was 31400 nM, the TGI (MOLT-4 leukemia) was over 63500 nM and the TGI (DLD-1 colon) was 18900 nM. It also gave a TGI (SK-MEL-2 melanoma) of over 57800 nM, a TGI (CCRF-CEM leukemia) of over 55000 nM and a TGI (M19-MEL melanoma) of over 20000 nM. The TGI (HL-60(TB) leukemia) was 18600 nM, the TGI (UO-31 renal) was 17400 nM and the TGI (LOX IMVI melanoma) was over 50200 nM. For the same compound, the TGI (DMS 114 small cell lung) was over 53800 nM, the TGI (RPMI-8226 leukemia) was 50600 nM and the TGI (RXF 393 renal) was 31100 nM. It also gave a TGI (SNB-19 CNS) of 35500 nM, a TGI (RXF-631 renal) of 25400 nM and a TGI (IGROV1 ovarian) of 35300 nM. The TGI (SF-268 CNS) was 34400 nM, the TGI (KM12 colon) was 30600 nM and the TGI (COLO 205 colon) was over 56100 nM. For the same compound, the TGI (NCI-H460 lung) was over 56300 nM, the TGI (SNB-75 CNS) was 39500 nM and the TGI (SF-539 CNS) was 31200 nM. For the same compound, the TGI (HCT-15 colon) was over 56300 nM, the TGI (NCI-H23 lung) was 29300 nM and the TGI (SK-MEL-5 melanoma) was 31300 nM. It also gave a TGI (HCT-116 colon) of 34700 nM.
